Measured values taken from ChEMBL document CHEMBL2331514, “Structure-based design and synthesis of novel pseudosaccharine derivatives as antiproliferative agents and kinase inhibitors” (Eur J Med Chem, 2013).

Key:
[1] = Partition coefficient, log P of the compound; format: physicochemical; details: octanol/water
Hs-578T = experiment: Cytotoxicity against human Hs578T cells assessed as growth inhibition at 10 uM after 48 hrs by SRB assay; format: functional; details: read-out: GI
UO-31 = experiment: Cytotoxicity against human UO31 cells assessed as growth inhibition at 10 uM after 48 hrs by SRB assay; format: functional; details: UO-31, 48 h, read-out: GI
RXF 393 = experiment: Cytotoxicity against human RXF393 cells assessed as growth inhibition at 10 uM after 48 hrs by SRB assay; format: functional; details: RXF 393, 48 h, read-out: GI
A498 = experiment: Cytotoxicity against human A498 cells assessed as growth inhibition at 10 uM after 48 hrs by SRB assay; format: functional; details: A498, 48 h, read-out: GI
786-0 = experiment: Cytotoxicity against human 786-0 cells assessed as growth inhibition at 10 uM after 48 hrs by SRB assay; format: functional; details: 786-0, 48 h, read-out: GI
SK-OV-3 = experiment: Cytotoxicity against human SKOV3 cells assessed as growth inhibition at 10 uM after 48 hrs by SRB assay; format: functional; details: SK-OV-3, 48 h, read-out: GI
OVCAR-8 = experiment: Cytotoxicity against human OVCAR8 cells assessed as growth inhibition at 10 uM after 48 hrs by SRB assay; format: functional; details: OVCAR-8, 48 h, read-out: GI
UACC-257 = experiment: Cytotoxicity against human UACC257 cells assessed as growth inhibition at 10 uM after 48 hrs by SRB assay; format: functional; details: UACC-257, 48 h, read-out: GI
Malme-3M = experiment: Cytotoxicity against human MALME-3M cells assessed as growth inhibition at 10 uM after 48 hrs by SRB assay; format: functional; details: read-out: GI
SNB-19 = experiment: Cytotoxicity against human SNB19 cells assessed as growth inhibition at 10 uM after 48 hrs by SRB assay; format: functional; details: SNB-19, 48 h, read-out: GI
SF-539 = experiment: Cytotoxicity against human SF539 cells assessed as growth inhibition at 10 uM after 48 hrs by SRB assay; format: functional; details: SF-539, 48 h, read-out: GI
SF-268 = experiment: Cytotoxicity against human SF268 cells assessed as growth inhibition at 10 uM after 48 hrs by SRB assay; format: functional; details: SF-268, 48 h, read-out: GI
SW-620 = experiment: Cytotoxicity against human SW620 cells assessed as growth inhibition at 10 uM after 48 hrs by SRB assay; format: functional; details: SW-620, 48 h, read-out: GI
HCT-15 = experiment: Cytotoxicity against human HCT15 cells assessed as growth inhibition at 10 uM after 48 hrs by SRB assay; format: functional; details: HCT-15, 48 h, read-out: GI
HCT-116 = experiment: Cytotoxicity against human HCT116 cells assessed as growth inhibition at 10 uM after 48 hrs by SRB assay; format: functional; details: HCT-116, 48 h, read-out: GI
HCC 2998 = experiment: Cytotoxicity against human HCC2998 cells assessed as growth inhibition at 10 uM after 48 hrs by SRB assay; format: functional; details: HCC 2998, 48 h, read-out: GI
COLO 205 = experiment: Cytotoxicity against human COLO205 cells assessed as growth inhibition at 10 uM after 48 hrs by SRB assay; format: functional; details: COLO 205, 48 h, read-out: GI
NCI-H322M = experiment: Cytotoxicity against human NCI-H322M cells assessed as growth inhibition at 10 uM after 48 hrs by SRB assay; format: functional; details: read-out: GI
NCI-H23 = experiment: Cytotoxicity against human NCI-H23 cells assessed as growth inhibition at 10 uM after 48 hrs by SRB assay; format: functional; details: NCI-H23, 48 h, read-out: GI
HOP-62 = experiment: Cytotoxicity against human HOP62 cells assessed as growth inhibition at 10 uM after 48 hrs by SRB assay; format: functional; details: HOP-62, 48 h, read-out: GI
[2] = Cytotoxicity against human EKVX cells assessed as growth inhibition at 10 uM after 48 hrs by SRB assay; format: functional; details: read-out: GI

Compound	logP [1]	inhibition of growth at 10 µM (Hs-578T)	inhibition of growth at 10 µM (UO-31)	inhibition of growth at 10 µM (RXF 393)	inhibition of growth at 10 µM (A498)	inhibition of growth at 10 µM (786-0)	inhibition of growth at 10 µM (SK-OV-3)	inhibition of growth at 10 µM (OVCAR-8)	inhibition of growth at 10 µM (UACC-257)	inhibition of growth at 10 µM (Malme-3M)	inhibition of growth at 10 µM (SNB-19)	inhibition of growth at 10 µM (SF-539)	inhibition of growth at 10 µM (SF-268)	inhibition of growth at 10 µM (SW-620)	inhibition of growth at 10 µM (HCT-15)	inhibition of growth at 10 µM (HCT-116)	inhibition of growth at 10 µM (HCC 2998)	inhibition of growth at 10 µM (COLO 205)	inhibition of growth at 10 µM (NCI-H322M)	inhibition of growth at 10 µM (NCI-H23)	further results
Cc1ccc(NC2=NS(=O)(=O)c3ccc(NC(=O)CCC(=O)O)cc32)cc1	1	-2%	12%	-4%	-14%	2%	-11%	-10%	-25%	-1%	1%	1%	-10%	1%	-13%	-6%	-4%	-11%	2%	1%	inhibition of growth at 10 µM (HOP-62): -5%; inhibition of growth at 10 µM [2]: -4%
O=C(Nc1ccccc1)Nc1ccc(OC2=NS(=O)(=O)c3ccccc32)cc1	2.89	13%	13%	5%	17%	26%	-13%	5%	-1%	21%	-1%	21%	6%	2%	48%	10%	20%	-9%	5%	6%	inhibition of growth at 10 µM (HOP-62): -11%; inhibition of growth at 10 µM [2]: -3%
O=C(Nc1ccc(NC2=NS(=O)(=O)c3ccccc32)cc1)Nc1cccc(Br)c1	2.24	35%	13%	35%	21%	27%	4%	17%	9%	17%	19%	36%	23%	-2%	-6%	22%	5%	-11%	29%	14%	inhibition of growth at 10 µM (HOP-62): 24%; inhibition of growth at 10 µM [2]: -4%
